From PubChem BioAssay (NCI) come the findings set out here.

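Briefly, cells in 96-well plates were exposed to five compound concentrations for 48 h, and endpoints were estimated by linear interpolation. GI50 marks 50% less growth. Definition used: TGI = concentration required for complete inhibition of growth.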 A value given as a limit tells only on which side of the number the result lay.

Among the test systems are T-47D breast; RXF 393 renal; SK-MEL-5 melanoma; MOLT-4 leukemia; NCI-H522 lung; ACHN renal; SNB-19 CNS; SK-MEL-28 melanoma; NCI-H460 lung; HCT-15 colon.
What all share (test): growth of human tumour cells (NCI), 48 h

Consider `Cc1ccc(C(=O)Nc2ccc(CN3CCN(C)CC3)c(C(F)(F)F)c2)cc1C#Cc1cnc(N)cc1C#N`, for which the GI50 with T-47D breast was 0.605 µM; in the assay on RXF 393 renal it was 0.129 µM; with SK-MEL-5 melanoma, 0.741 µM; with MOLT-4 leukemia it was 0.137 µM; in the assay on NCI-H522 lung it was 0.176 µM; in the assay on ACHN renal it was 0.074 µM. For the same compound, the GI50 is 0.539 µM in the assay on SNB-19 CNS, 0.106 µM in the assay on SK-MEL-28 melanoma, 0.0915 µM in the assay with NCI-H460 lung and 0.13 µM in the assay on HCT-15 colon. The TGI came out at 8.71 µM in the assay with T-47D breast; 0.706 µM in the assay with RXF 393 renal; 1.43 µM in the assay with SK-MEL-5 melanoma; 1.08 µM with MOLT-4 leukemia; 0.925 µM with NCI-H522 lung; 0.555 µM with ACHN renal. The TGI with SNB-19 CNS turned out to be 1.3 µM; with SK-MEL-28 melanoma, 0.701 µM; in the assay on NCI-H460 lung, 0.968 µM; with HCT-15 colon, 0.762 µM.

As to `O=C(O)C(=Cc1ccnc2ccccc12)C(=O)O`, the TGI with T-47D breast, in the assay with RXF 393 renal, in the assay with SK-MEL-5 melanoma, in the assay with MOLT-4 leukemia, with NCI-H522 lung and with ACHN renal was above 100 µM throughout. In addition, the TGI in the assay on SNB-19 CNS, with SK-MEL-28 melanoma, in the assay on NCI-H460 lung and in the assay on HCT-15 colon was above 100 µM in each case.

In the case of `Oc1ccc(Cc2ccc(O)c3ncccc23)c2cccnc12`, the GI50 in the assay with T-47D breast is 0.15 µM; in the assay on RXF 393 renal, 0.154 µM; in the assay with SK-MEL-5 melanoma, 0.12 µM; in the assay with MOLT-4 leukemia it was 0.231 µM; with NCI-H522 lung it was 0.0439 µM; in the assay with ACHN renal it was 0.0367 µM. Also, the GI50 in the assay with SNB-19 CNS was 0.0361 µM; in the assay on SK-MEL-28 melanoma, 0.0607 µM; in the assay with NCI-H460 lung, 0.0323 µM; with HCT-15 colon, 0.0712 µM. The TGI in the assay on T-47D breast was 0.704 µM; in the assay on RXF 393 renal, above 100 µM; in the assay with SK-MEL-5 melanoma, 0.609 µM; in the assay with MOLT-4 leukemia, above 100 µM; in the assay with NCI-H522 lung, 0.531 µM; with ACHN renal, above 100 µM. The TGI in the assay on SNB-19 CNS is 29.6 µM; in the assay on SK-MEL-28 melanoma it was above 100 µM; with NCI-H460 lung it was above 100 µM; in the assay on HCT-15 colon it was above 100 µM.

Consider `N#Cc1c(C(=O)c2ccccc2)cnn1-c1ccccc1`, for which the GI50 in the assay on T-47D breast, in the assay with RXF 393 renal, in the assay with SK-MEL-5 melanoma, in the assay on MOLT-4 leukemia, in the assay with NCI-H522 lung and in the assay with ACHN renal was above 25 µM throughout. The GI50 in the assay with SNB-19 CNS, in the assay on SK-MEL-28 melanoma, with NCI-H460 lung and in the assay with HCT-15 colon was above 25 µM in each case. The TGI in the assay on T-47D breast, in the assay on RXF 393 renal, in the assay with SK-MEL-5 melanoma, in the assay on MOLT-4 leukemia, in the assay with NCI-H522 lung and with ACHN renal was above 25 µM in each case. Further, the TGI with SNB-19 CNS, in the assay on SK-MEL-28 melanoma, in the assay on NCI-H460 lung and in the assay on HCT-15 colon was above 25 µM throughout.

Turning to `O=c1cc(C(F)(F)F)c2cc3c(cc2o1)NCCC3`, the TGI was above 100 µM in the assay with T-47D breast; 0.987 µM in the assay with RXF 393 renal; above 100 µM with SK-MEL-5 melanoma; above 100 µM in the assay on MOLT-4 leukemia; above 100 µM in the assay on NCI-H522 lung; above 100 µM in the assay with ACHN renal. Besides, the TGI was 91.7 µM in the assay with SNB-19 CNS, above 100 µM with SK-MEL-28 melanoma, above 100 µM in the assay with NCI-H460 lung and above 100 µM with HCT-15 colon.

With `CC1=C(/C=C/C(C)=C\C=C\C(C)=C\C(=O)Nc2ccc3c(c2)OCO3)C(C)(C)CCC1`, the GI50 in the assay on T-47D breast was 25.4 µM; with RXF 393 renal, 24 µM; with SK-MEL-5 melanoma, 16.2 µM; with MOLT-4 leukemia it was 16.1 µM; in the assay with NCI-H522 lung, 14.1 µM; in the assay on ACHN renal it was 89.1 µM. Further, the GI50 is above 100 µM with SNB-19 CNS, above 100 µM with SK-MEL-28 melanoma, 50.5 µM in the assay on NCI-H460 lung and 36.4 µM with HCT-15 colon. Also, the TGI in the assay on T-47D breast was above 100 µM; in the assay on RXF 393 renal, above 100 µM; with SK-MEL-5 melanoma, 68.1 µM; with MOLT-4 leukemia, above 100 µM; with NCI-H522 lung, above 100 µM; with ACHN renal, above 100 µM. Also, the TGI in the assay on SNB-19 CNS, in the assay with SK-MEL-28 melanoma, in the assay on NCI-H460 lung and with HCT-15 colon was above 100 µM throughout.

Turning to `Nc1ccccc1C#C/C=C\C#Cc1ccccc1C(F)(F)F`, the GI50 was 19.4 µM with T-47D breast; 1.1 µM in the assay on RXF 393 renal; 0.841 µM in the assay on SK-MEL-5 melanoma; above 61.3 µM with MOLT-4 leukemia; 2.07 µM with NCI-H522 lung; 0.323 µM in the assay on ACHN renal. Also, the GI50 in the assay with SNB-19 CNS was 10.5 µM; in the assay on SK-MEL-28 melanoma, 18.2 µM; in the assay with NCI-H460 lung, 1.53 µM; with HCT-15 colon, 1.13 µM. In addition, the TGI in the assay with T-47D breast was 61.2 µM; in the assay on RXF 393 renal, 9.98 µM; in the assay on SK-MEL-5 melanoma, 6.3 µM; with MOLT-4 leukemia, above 100 µM; with NCI-H522 lung it was 34.3 µM; in the assay on ACHN renal, 15.8 µM. Also, the TGI in the assay with SNB-19 CNS is 58.7 µM; in the assay with SK-MEL-28 melanoma, above 100 µM; in the assay on NCI-H460 lung, above 40 µM; in the assay with HCT-15 colon, 12.5 µM.

In the case of `Cc1cn(C2CC(F)C(CO)O2)c(=O)[nH]c1=O` (stereo unspecified), the GI50 in the assay with T-47D breast, with RXF 393 renal, in the assay with SK-MEL-5 melanoma, with MOLT-4 leukemia, in the assay with NCI-H522 lung and in the assay on ACHN renal was above 100 µM in each case. For the same compound, the GI50 in the assay on SK-MEL-28 melanoma was above 100 µM; with NCI-H460 lung, 0.963 µM; in the assay on HCT-15 colon, above 100 µM. The TGI in the assay with T-47D breast, in the assay with RXF 393 renal, in the assay with SK-MEL-5 melanoma, in the assay on MOLT-4 leukemia, in the assay on NCI-H522 lung and in the assay on ACHN renal was above 100 µM throughout. The TGI with SK-MEL-28 melanoma, with NCI-H460 lung and with HCT-15 colon was above 100 µM throughout.

Consider `COc1ccc(/C=C/C(=O)c2cc3c(N)c(C(=O)Nc4ccccc4Cl)sc3nc2C)cc1`, for which the GI50 in the assay on T-47D breast is 2.95 µM; with RXF 393 renal it was 0.846 µM; in the assay with SK-MEL-5 melanoma, 1.36 µM; in the assay on MOLT-4 leukemia, 4.59 µM; with NCI-H522 lung, 0.365 µM; with ACHN renal it was 1.74 µM. For the same compound, the GI50 was 3.8 µM in the assay with SNB-19 CNS, 2.2 µM with NCI-H460 lung and 2.96 µM in the assay with HCT-15 colon. Further, the TGI was above 50 µM in the assay with T-47D breast; 3.6 µM in the assay on RXF 393 renal; 8.79 µM in the assay with SK-MEL-5 melanoma; above 50 µM in the assay on MOLT-4 leukemia; above 50 µM in the assay with NCI-H522 lung; 10.8 µM in the assay on ACHN renal. The TGI with SNB-19 CNS was 23.1 µM; in the assay with NCI-H460 lung it was above 50 µM; in the assay with HCT-15 colon, above 50 µM.
